Measurements reported in patent US7439415B2, “Population of Hoxb8 mutants and uses in identifying agents for treating repetitive behaviors” (priority 2001, dated 2008).
Counter-ions that a name gives are not always drawn.

Tested on: Hoxb8 mutant animals
Assay: Fluoxetine treatment of Hoxb8 mutant mice with excessive grooming (induced grooming assay / hair regrowth)
Format: in vivo, mouse
Details: 10 mg/kg/day via Alzet mini-osmotic pumps, thirty days of treatment

Structure (SMILES): CNCCC(Oc1ccc(C(F)(F)F)cc1)c1ccccc1 (stereo not shown) [Flu, Fluoxetine-HCl]
- hair regrowth / efficacy against excessive grooming behavior: exhibited signs of hair regrowth
